Laboratory results taken from the METLIN SMRT retention time set (Domingo-Almenara et al. 2019).

Assay: gradient 5% acetonitrile 3 min, to 50% in 2 min, to 85% in 15 min, held 3 min, 100 µL/min
Conditions: column: Zorbax Extend-C18 2.1 x 50 mm; eluents: water / acetonitrile, 0.1% formic acid
Summary of the method: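 The mobile phases were water and acetonitrile, each with 0.1% formic acid, pumped at 100 μL/min through a Zorbax Extend-C18 column (2.1 × 50 mm, 1.8 μm). Pure standards were injected as mixtures of ~100 molecules and detected by a quadrupole time-of-flight mass spectrometer in positive and negative ionization mode. Retention time came from computationally picked adduct peaks, each inspected by hand.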

Q: Which RP-LC retention time does the source give for `Cn1c(=O)c(N2CCN(C(=O)c3ccc(Br)cc3)CC2)nc2cccnc21` here?
A: The RP-LC retention time was 911 s.

Q: Which RP-LC retention time does the source give for `Cc1ccc(N2CCC(NC(=O)C3CCCCC3)C2=O)cc1` (stereo not drawn) here?
A: The RP-LC retention time was 520 s.

Q: With `CCOc1ccc(C2=NC3(CCN(C)CC3)NC(c3ccccc3O)C2)cc1` (stereo not drawn) as the molecule, how does the RP-LC retention time read?
A: Its RP-LC retention time is 604 s.

Q: Which RP-LC retention time does the source give for `O=C1CCN(C(=O)C2CCN(C(=O)CCC3CCCC3)CC2)CCCCCCN1` here?
A: The RP-LC retention time was 725 s.

Q: Which RP-LC retention time does the source give for `O=C(CCc1nc2ccccc2n(CC(=O)Nc2cc(F)ccc2F)c1=O)NCc1ccccc1` here?
A: The RP-LC retention time was 884 s.

Q: Which RP-LC retention time does the source give for `CN1C(=O)c2cc(S(=O)(=O)Nc3ccc4c(c3)OCCO4)ccc2Oc2cccnc21` here?
A: Its RP-LC retention time is 826 s.

Q: For `O=C(c1cccc(Cl)c1)N1CCc2cc(-c3ccno3)ccc21`, which RP-LC retention time is on record?
A: Its RP-LC retention time is 999 s.

Q: With `CCC(=O)N1CCc2sc(C(=O)NC3CCN(Cc4ccccc4)CC3)cc2C1` as the molecule, how does the RP-LC retention time read?
A: Its RP-LC retention time is 604 s.

Q: Which RP-LC retention time does the source give for `CCOc1ccccc1NC(=O)N1CCC(n2cnc3cccnc32)CC1` here?
A: The RP-LC retention time was 686 s.

Q: Which RP-LC retention time does the source give for `CN(C)c1ccc(C(=O)Nc2cc(-c3ccsc3)no2)cc1` here?
A: Its RP-LC retention time is 961 s.

Q: With `CCc1ccc(C2=Nc3ccccc3N(CC(N)=O)C(=O)C2)cc1` as the molecule, how does the RP-LC retention time read?
A: Its RP-LC retention time is 788 s.

Q: For `Cc1c(NC(=O)c2sc3cc(F)ccc3c2Cl)c(=O)n(-c2ccccc2)n1C`, which RP-LC retention time is on record?
A: The RP-LC retention time was 756 s.

Q: With `CCc1cccc(NC(=O)c2c(O)c3cccnc3n(-c3ccccc3)c2=O)c1` as the molecule, how does the RP-LC retention time read?
A: The RP-LC retention time was 1430 s.

Q: With `COc1ccc(CNC(=O)N2c3ccccc3CC2c2nc(C(C)C)no2)cc1` (stereo not drawn) as the molecule, how does the RP-LC retention time read?
A: The RP-LC retention time was 1000 s.

Q: With `COc1ccc(C(=O)Nc2nc3c(s2)CCCC3C(=O)NCCC2=CCCCC2)cc1` (stereo not drawn) as the molecule, how does the RP-LC retention time read?
A: The RP-LC retention time was 1040 s.

Q: With `O=C(C1CCN(c2cncnc2N2CCCCC2)CC1)N1CCN(C2CCCCC2)CC1` as the molecule, how does the RP-LC retention time read?
A: Its RP-LC retention time is 557 s.

Q: For `CC(C)CC(=O)N1C[C@H](c2nc(-c3ccccc3)no2)[C@@H](C)C1`, which RP-LC retention time is on record?
A: Its RP-LC retention time is 951 s.

Q: With `O=C(c1ccco1)N1CCCn2nc(-c3cccc(Cl)c3)cc2C1` as the molecule, how does the RP-LC retention time read?
A: The RP-LC retention time was 861 s.

Q: Which RP-LC retention time does the source give for `COCCC(=O)N1CCC2(CCC2OC)CC1` (stereo not drawn) here?
A: The RP-LC retention time was 664 s.

Q: With `C=CCNC(=O)c1cn(-c2ccc(-c3nc(CC)no3)cn2)cn1` as the molecule, how does the RP-LC retention time read?
A: The RP-LC retention time was 750 s.

Q: With `O=C(Cn1cccc1-c1nnc(-c2ccccc2)o1)N1CCN(c2ccc(F)cc2)CC1` as the molecule, how does the RP-LC retention time read?
A: Its RP-LC retention time is 996 s.

Q: With `COc1cc(-c2noc(C3CC(=O)N(c4ccc(C)cc4)C3)n2)cc(OC)c1OC` (stereo not drawn) as the molecule, how does the RP-LC retention time read?
A: The RP-LC retention time was 902 s.

Q: For `Cc1ccc(Cl)cc1NC(=O)Cn1cnc2nc3c(cc2c1=O)CCCC3`, which RP-LC retention time is on record?
A: The RP-LC retention time was 783 s.

Q: With `CN1C(=O)c2ccccc2C(C(=O)NCCN(Cc2ccco2)C2CCCC2)C1c1cccs1` (stereo not drawn) as the molecule, how does the RP-LC retention time read?
A: Its RP-LC retention time is 674 s.

Q: Which RP-LC retention time does the source give for `O=C(CCC1CCN(S(=O)(=O)c2ccccc2)CC1)NC1CCCC1` here?
A: The RP-LC retention time was 852 s.

Q: For `Cc1cc(C)cc(NC(=O)Nc2nccn(-c3ccc(Br)cc3)c2=O)c1`, which RP-LC retention time is on record?
A: Its RP-LC retention time is 1130 s.

Q: For `Cc1ccc2c(c1)N(S(C)(=O)=O)CCC(C(=O)NC1CCCCCCC1)O2` (stereo not drawn), which RP-LC retention time is on record?
A: Its RP-LC retention time is 1050 s.

Q: Which RP-LC retention time does the source give for `O=C(Nc1ccccc1F)N1CCC(n2cnc3ccc(F)cc3c2=O)CC1` here?
A: The RP-LC retention time was 743 s.

Q: For `CCN1CCCC1CNS(=O)(=O)c1ccccc1-c1nc(-c2ccc(C)cc2)no1` (stereo not drawn), which RP-LC retention time is on record?
A: Its RP-LC retention time is 746 s.

Q: With `Cc1cc(=O)n(CC(=O)Nc2ccc(F)cc2)c(N2CCN(c3ccccc3)CC2)n1` as the molecule, how does the RP-LC retention time read?
A: The RP-LC retention time was 828 s.

Q: For `Cc1ccc2[nH]cc(CCN3CC(C(=O)NC4CCCCCCC4)CC3=O)c2c1` (stereo not drawn), which RP-LC retention time is on record?
A: The RP-LC retention time was 907 s.

Q: For `O=C(CSc1ccc(NC(=O)C2CC2)nn1)NCc1cccs1`, which RP-LC retention time is on record?
A: The RP-LC retention time was 652 s.

Q: For `CCOCCCNC(=O)c1cn(C)nc1S(=O)(=O)N1CCN(c2ccccc2OCC)CC1`, which RP-LC retention time is on record?
A: Its RP-LC retention time is 923 s.

Q: For `Cc1ccccc1Cn1nc2ccc(S(=O)(=O)N3CCCCC3)cn2c1=O`, which RP-LC retention time is on record?
A: Its RP-LC retention time is 813 s.

Q: Which RP-LC retention time does the source give for `Cc1cc(C(=O)Nc2sc(C)c(C)c2C#N)on1` here?
A: The RP-LC retention time was 786 s.

Q: For `Cc1cc(C)n2nc(SCC(=O)NC3CCCCC3)nc2n1`, which RP-LC retention time is on record?
A: Its RP-LC retention time is 693 s.

Q: For `O=C(CCN1C(=O)C2C3C=CC(C3)C2C1=O)N1CCN(c2ccccn2)CC1` (stereo not drawn), which RP-LC retention time is on record?
A: Its RP-LC retention time is 572 s.

Q: With `Cc1cc(C)n(-c2nc(-c3ccc(Cl)cc3)cs2)n1` as the molecule, how does the RP-LC retention time read?
A: Its RP-LC retention time is 1420 s.
